Measured values taken from US9371281B2, “Indole derivatives as inhibitors of histone deacetylase” (Pharmacyclics LLC, priority 2006, dated 2016).

Key:
Format in all cases: biochemical
[1] = molecular target: T1, HDAC8 (Homo sapiens, UniProt Q9BY41); assay: Inhibition of HDAC8 deacetylase activity in vitro
T1 sequence (Q9BY41 1-377): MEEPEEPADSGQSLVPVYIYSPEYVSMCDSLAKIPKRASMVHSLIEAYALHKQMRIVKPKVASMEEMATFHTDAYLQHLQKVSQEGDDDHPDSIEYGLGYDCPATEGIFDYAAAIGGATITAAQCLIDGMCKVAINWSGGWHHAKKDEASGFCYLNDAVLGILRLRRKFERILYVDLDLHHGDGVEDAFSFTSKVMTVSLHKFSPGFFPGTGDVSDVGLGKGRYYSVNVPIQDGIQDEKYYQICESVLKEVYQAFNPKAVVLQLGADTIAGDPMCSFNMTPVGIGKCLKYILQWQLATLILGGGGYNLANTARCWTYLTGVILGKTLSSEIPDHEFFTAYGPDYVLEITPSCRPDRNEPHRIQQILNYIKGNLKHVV

[2] = molecular target: HDAC1 (Homo sapiens, UniProt Q13547); assay: Inhibition of HDAC1 deacetylase activity in vitro; settings: ratio of IC50 values
[3] = molecular target: HDAC3 (Homo sapiens, UniProt O15379); assay: Inhibition of HDAC3 deacetylase activity in vitro; settings: ratio of IC50 values
[4] = molecular target: HDAC10 (Homo sapiens, UniProt Q969S8); assay: Inhibition of HDAC10 deacetylase activity in vitro; settings: ratio of IC50 values
[5] = molecular target: HDAC2 (Homo sapiens, UniProt Q92769); assay: Inhibition of HDAC2 deacetylase activity in vitro; settings: ratio of IC50 values
[6] = molecular target: HDAC6 (Homo sapiens, UniProt Q9UBN7); assay: Inhibition of HDAC6 deacetylase activity in vitro; settings: ratio of IC50 values
Sequence of HDAC6 (Q9UBN7 whole entry): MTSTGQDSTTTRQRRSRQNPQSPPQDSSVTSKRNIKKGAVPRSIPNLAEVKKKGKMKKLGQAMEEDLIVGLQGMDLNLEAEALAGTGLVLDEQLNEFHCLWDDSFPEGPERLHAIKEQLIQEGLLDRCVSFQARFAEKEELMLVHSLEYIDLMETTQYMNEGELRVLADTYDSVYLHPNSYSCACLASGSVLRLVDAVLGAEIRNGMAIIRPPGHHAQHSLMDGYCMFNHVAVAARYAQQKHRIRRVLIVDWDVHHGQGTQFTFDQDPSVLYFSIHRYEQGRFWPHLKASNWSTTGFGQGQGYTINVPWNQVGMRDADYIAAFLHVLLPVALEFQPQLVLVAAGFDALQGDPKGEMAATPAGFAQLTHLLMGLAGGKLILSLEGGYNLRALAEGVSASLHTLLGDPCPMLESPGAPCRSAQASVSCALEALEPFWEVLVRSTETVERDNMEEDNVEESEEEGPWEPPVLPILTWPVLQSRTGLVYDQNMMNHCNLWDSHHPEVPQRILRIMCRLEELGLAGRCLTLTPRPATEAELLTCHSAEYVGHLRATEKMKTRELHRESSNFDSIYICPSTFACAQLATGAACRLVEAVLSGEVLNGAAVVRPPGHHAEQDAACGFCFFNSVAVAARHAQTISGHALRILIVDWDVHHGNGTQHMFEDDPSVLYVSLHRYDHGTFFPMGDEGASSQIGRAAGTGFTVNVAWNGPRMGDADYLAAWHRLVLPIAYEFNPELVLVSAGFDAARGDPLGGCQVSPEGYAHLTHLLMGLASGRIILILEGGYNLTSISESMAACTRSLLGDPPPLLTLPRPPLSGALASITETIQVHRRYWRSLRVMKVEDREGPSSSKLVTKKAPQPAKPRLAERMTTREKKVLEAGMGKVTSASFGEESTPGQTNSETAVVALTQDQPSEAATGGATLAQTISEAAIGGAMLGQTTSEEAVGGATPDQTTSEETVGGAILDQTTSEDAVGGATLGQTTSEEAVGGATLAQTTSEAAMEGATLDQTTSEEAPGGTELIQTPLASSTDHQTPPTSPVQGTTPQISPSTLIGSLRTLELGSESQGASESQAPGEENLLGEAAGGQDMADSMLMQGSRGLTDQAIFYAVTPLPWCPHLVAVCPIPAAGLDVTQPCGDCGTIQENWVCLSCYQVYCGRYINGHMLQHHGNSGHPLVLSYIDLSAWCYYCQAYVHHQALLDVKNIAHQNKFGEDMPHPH

Sequence of HDAC1 (Q13547 whole entry): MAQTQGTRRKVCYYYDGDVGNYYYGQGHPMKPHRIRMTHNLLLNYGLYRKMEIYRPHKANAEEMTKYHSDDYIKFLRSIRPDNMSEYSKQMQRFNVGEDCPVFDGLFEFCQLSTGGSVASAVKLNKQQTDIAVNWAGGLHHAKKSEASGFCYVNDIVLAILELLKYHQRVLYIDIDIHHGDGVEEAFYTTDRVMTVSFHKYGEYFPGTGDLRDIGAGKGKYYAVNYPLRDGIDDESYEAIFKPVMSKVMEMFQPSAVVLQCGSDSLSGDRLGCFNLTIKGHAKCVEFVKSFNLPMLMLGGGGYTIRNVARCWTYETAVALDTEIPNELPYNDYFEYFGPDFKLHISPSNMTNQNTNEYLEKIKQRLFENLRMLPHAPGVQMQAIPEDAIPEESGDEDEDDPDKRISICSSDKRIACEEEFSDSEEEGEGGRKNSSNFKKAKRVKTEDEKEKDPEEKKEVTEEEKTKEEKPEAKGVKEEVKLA
Sequence of HDAC10 (Q969S8 whole entry): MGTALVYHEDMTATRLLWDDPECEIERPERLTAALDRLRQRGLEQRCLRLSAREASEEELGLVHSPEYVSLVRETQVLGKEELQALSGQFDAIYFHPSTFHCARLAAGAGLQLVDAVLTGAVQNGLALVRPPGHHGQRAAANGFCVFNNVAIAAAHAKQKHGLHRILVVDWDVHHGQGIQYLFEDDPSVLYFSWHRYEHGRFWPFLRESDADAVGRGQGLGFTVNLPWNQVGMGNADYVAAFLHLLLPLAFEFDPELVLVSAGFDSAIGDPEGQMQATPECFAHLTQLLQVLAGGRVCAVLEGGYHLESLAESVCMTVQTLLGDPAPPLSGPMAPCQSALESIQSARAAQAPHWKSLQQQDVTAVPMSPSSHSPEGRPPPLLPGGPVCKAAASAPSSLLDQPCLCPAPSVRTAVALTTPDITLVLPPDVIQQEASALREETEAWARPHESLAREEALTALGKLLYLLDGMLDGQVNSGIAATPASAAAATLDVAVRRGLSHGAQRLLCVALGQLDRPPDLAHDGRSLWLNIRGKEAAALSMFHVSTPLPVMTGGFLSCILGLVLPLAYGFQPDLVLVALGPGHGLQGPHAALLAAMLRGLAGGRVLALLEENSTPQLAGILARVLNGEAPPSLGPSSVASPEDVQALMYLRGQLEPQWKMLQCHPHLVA
Sequence of HDAC3 (O15379 whole entry): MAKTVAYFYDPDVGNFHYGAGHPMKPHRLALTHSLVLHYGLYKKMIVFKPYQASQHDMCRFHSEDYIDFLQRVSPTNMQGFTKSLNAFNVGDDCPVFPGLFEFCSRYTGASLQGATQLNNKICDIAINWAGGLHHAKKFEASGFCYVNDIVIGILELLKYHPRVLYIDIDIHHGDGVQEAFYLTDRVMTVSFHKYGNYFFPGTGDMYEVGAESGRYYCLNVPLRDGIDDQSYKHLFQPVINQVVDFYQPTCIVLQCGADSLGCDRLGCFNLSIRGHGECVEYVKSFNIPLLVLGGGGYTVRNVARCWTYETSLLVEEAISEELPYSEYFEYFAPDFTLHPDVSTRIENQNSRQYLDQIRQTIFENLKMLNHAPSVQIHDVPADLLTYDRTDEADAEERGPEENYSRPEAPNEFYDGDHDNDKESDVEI
Sequence of HDAC3 (Q9Y618 389-480 partner limits assumed): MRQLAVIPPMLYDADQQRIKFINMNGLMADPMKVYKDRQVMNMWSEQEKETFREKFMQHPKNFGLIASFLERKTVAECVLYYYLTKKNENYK
Sequence of HDAC2 (Q92769 whole entry): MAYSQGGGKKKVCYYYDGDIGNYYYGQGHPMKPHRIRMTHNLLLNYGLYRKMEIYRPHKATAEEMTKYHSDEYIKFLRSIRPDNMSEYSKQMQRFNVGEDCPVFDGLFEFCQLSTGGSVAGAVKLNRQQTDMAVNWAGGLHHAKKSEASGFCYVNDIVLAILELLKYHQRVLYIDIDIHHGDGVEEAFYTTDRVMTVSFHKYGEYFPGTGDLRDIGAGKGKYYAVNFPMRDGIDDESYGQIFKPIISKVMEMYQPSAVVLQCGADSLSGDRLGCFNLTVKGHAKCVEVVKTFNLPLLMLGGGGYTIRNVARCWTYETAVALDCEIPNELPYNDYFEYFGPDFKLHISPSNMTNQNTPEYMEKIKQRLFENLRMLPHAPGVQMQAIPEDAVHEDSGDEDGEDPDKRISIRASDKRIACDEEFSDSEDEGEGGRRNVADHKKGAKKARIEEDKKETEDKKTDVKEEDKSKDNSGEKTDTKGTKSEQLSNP

Structure (SMILES): O=C(NO)c1ccc2ccn(Cc3ccc4nonc4c3)c2c1 [Compound 19, 1-(benzo[2,1,3]oxadiazol-5-ylmethyl)-1H-indole-6-carboxylic acid hydroxyamide]
- IC50 [1]: < 100 nM
- HDAC-1/HDAC-8 [2]: B (B >100)

Structure (SMILES): O=C(NO)c1ccc2ccn(Cc3ccc(F)cc3)c2c1 [Compound 9, 1-(4-fluoro-phenylmethyl)-1H-indole-6-carboxylic acid hydroxyamide]
- IC50 [1]: < 100 nM
- HDAC-1/HDAC-8 [2]: A (A >10 and <100)

Structure (SMILES): Cn1cc(Cc2ccc(NC(=O)c3ccccc3)cc2)c2cc(C(=O)NO)ccc21 [Compound 36, 1-methyl-3-[4-(phenylcarbonylamino)-phenylmethyl]-1H-indole-5-carboxylic acid hydroxyamide]
- IC50 [1]: < 100 nM
- HDAC-1/HDAC-8 [2]: A (A >10 and <100)

Structure (SMILES): O=C(NO)c1ccc2ccn(Cc3ccc(Cl)cc3)c2c1 [Compound 18, 1-(4-chloro-phenylmethyl)-1H-indole-6-carboxylic acid hydroxyamide]
- IC50 [1]: < 100 nM
- HDAC-1/HDAC-8 [2]: B (B >100)

Structure (SMILES): COc1cccc(Cn2ccc3ccc(C(=O)NO)cc32)c1 [Compound 12, 1-(3-methoxy-phenylmethyl)-1H-indole-6-carboxylic acid hydroxyamide]
- IC50 [1]: < 100 nM
- HDAC-1/HDAC-8 [2]: A (A >10 and <100)

Structure (SMILES): O=C(NO)c1ccc2ccn(Cc3ccc(OC(F)(F)F)cc3)c2c1 [Compound 17, 1-[4-(trifluoromethoxy)-phenylmethyl]-1H-indole-6-carboxylic acid hydroxyamide]
- IC50 [1]: < 100 nM
- HDAC-1/HDAC-8 [2]: B (B >100)

Structure (SMILES): Cn1cc(Cc2ccc(F)cc2)c2cc(C(=O)NO)ccc21 [Compound 39, 1-methyl-3-(4-fluoro-phenylmethyl)-1H-indole-5-carboxylic acid hydroxyamide]
- HDAC-3/HDAC-8 [3]: A (A >10 and <100)
- IC50 [1]: < 100 nM
- HDAC-10/HDAC-8 [4]: B (B >100)
- HDAC-1/HDAC-8 [2]: B (B >100)
- HDAC-2/HDAC-8 [5]: B (B >100)
- HDAC-6/HDAC-8 [6]: A (A >10 and <100)

Structure (SMILES): Cn1cc(Cc2ccc(N)cc2)c2cc(C(=O)NO)ccc21 [Compound 38, 1-methyl-3-(4-amino-phenylmethyl)-1H-indole-5-carboxylic acid hydroxyamide]
- IC50 [1]: < 100 nM
- HDAC-1/HDAC-8 [2]: A (A >10 and <100)

Structure (SMILES): CC(C)n1cc(Cc2ccccc2)c2cc(C(=O)NO)ccc21 [Compound 37, 1-isopropyl-3-(phenylmethyl)-1H-indole-5-carboxylic acid hydroxyamide]
- IC50 [1]: < 100 nM
- HDAC-1/HDAC-8 [2]: A (A >10 and <100)

Structure (SMILES): O=C(NO)c1ccc2ccn(Cc3ccc4ccccc4c3)c2c1 [Compound 13, 1-(naphth-2-ylmethyl)-1H-indole-6-carboxylic acid hydroxyamide]
- IC50 [1]: < 100 nM
- HDAC-1/HDAC-8 [2]: A (A >10 and <100)

Structure (SMILES): O=C(NO)c1ccc2ccn(CC3CCCCC3)c2c1 [Compound 15, 1-(cyclohexylmethyl)-1H-indole-6-carboxylic acid hydroxyamide]
- IC50 [1]: < 100 nM
- HDAC-1/HDAC-8 [2]: A (A >10 and <100)

Structure (SMILES): COc1ccc(Cn2ccc3ccc(C(=O)NO)cc32)cc1F [Compound 21, 1-(3-fluoro-4-methoxy-phenylmethyl)-1H-indole-6-carboxylic acid hydroxyamide]
- IC50 [1]: < 100 nM
- HDAC-1/HDAC-8 [2]: B (B >100)

Structure (SMILES): O=C(NO)c1ccc2ccn(Cc3ccccc3Cl)c2c1 [Compound 11, 1-(2-chloro-phenylmethyl)-1H-indole-6-carboxylic acid hydroxyamide]
- IC50 [1]: < 100 nM
- HDAC-1/HDAC-8 [2]: A (A >10 and <100)

Structure (SMILES): Cc1ccc(Cn2ccc3ccc(C(=O)NO)cc32)cc1 [Compound 20, 1-(4-methyl-phenylmethyl)-1H-indole-6-carboxylic acid hydroxyamide]
- IC50 [1]: < 100 nM
- HDAC-1/HDAC-8 [2]: B (B >100)

Structure (SMILES): O=C(NO)c1ccc2ccn(Cc3ccc(OC(F)F)cc3)c2c1 [Compound 22, 1-[4-(difluoromethoxy)-phenylmethyl]-1H-indole-6-carboxylic acid hydroxyamide]
- IC50 [1]: < 100 nM
- HDAC-1/HDAC-8 [2]: B (B >100)

Structure (SMILES): O=C(NO)c1ccc2ccn(Cc3ccc(Cl)c(Cl)c3)c2c1 [Compound 1, 1-(3,4-dichloro-phenylmethyl)-1H-indole-6-carboxylic acid hydroxyamide]
- IC50 [1]: < 100 nM
- HDAC-1/HDAC-8 [2]: A (A >10 and <100)

Structure (SMILES): COc1cc(Cn2ccc3ccc(C(=O)NO)cc32)cc(OC)c1 [Compound 7, 1-(3,5-dimethoxy-phenylmethyl)-1H-indole-6-carboxylic acid hydroxyamide]
- IC50 [1]: < 100 nM
- HDAC-1/HDAC-8 [2]: A (A >10 and <100)

Structure (SMILES): Cc1ccccc1Cn1ccc2ccc(C(=O)NO)cc21 [Compound 2, 1-(2-methyl-phenylmethyl)-1H-indole-6-carboxylic acid hydroxyamide]
- IC50 [1]: < 100 nM
- HDAC-1/HDAC-8 [2]: A (A >10 and <100)

Structure (SMILES): O=C(NO)c1ccc2ccn(Cc3ccccc3F)c2c1 [Compound 10, 1-(2-fluoro-phenylmethyl)-1H-indole-6-carboxylic acid hydroxyamide]
- IC50 [1]: < 100 nM
- HDAC-1/HDAC-8 [2]: A (A >10 and <100)

Structure (SMILES): O=C(NO)c1ccc2ccn(Cc3ccccc3)c2c1 [Compound 6, 1-(benzyl)-1H-indole-6-carboxylic acid hydroxyamide]
- IC50 [1]: < 100 nM
- HDAC-1/HDAC-8 [2]: A (A >10 and <100)

Structure (SMILES): COc1cc(Cn2ccc3ccc(C(=O)NO)cc32)cc(OC)c1OC [Compound 3, 1-(3,4,5-trimethoxy-phenylmethyl)-1H-indole-6-carboxylic acid hydroxyamide]
- IC50 [1]: > 100 nM
- HDAC-1/HDAC-8 [2]: A (A >10 and <100)

Structure (SMILES): Cc1cccc(Cn2ccc3ccc(C(=O)NO)cc32)c1 [Compound 5, 1-(3-methyl-phenylmethyl)-1H-indole-6-carboxylic acid hydroxyamide]
- IC50 [1]: < 100 nM
- HDAC-1/HDAC-8 [2]: A (A >10 and <100)

Structure (SMILES): CC(c1ccccc1)n1ccc2ccc(C(=O)NO)cc21 (stereo not shown) [Compound 8, 1-(1-methyl-1-phenylmethyl)-1H-indole-6-carboxylic acid hydroxyamide]
- IC50 [1]: < 100 nM
- HDAC-1/HDAC-8 [2]: A (A >10 and <100)

Structure (SMILES): O=C(NO)c1ccc2ccn(CC=Cc3ccccc3)c2c1 [Compound 16, 1-[1-(phenyl)-propen-3-yl]-1H-indole-6-carboxylic acid hydroxyamide]
- IC50 [1]: < 100 nM
- HDAC-1/HDAC-8 [2]: B (B >100)

Structure (SMILES): O=C(NO)c1ccc2ccn(CCCc3ccccc3)c2c1 [Compound 14, 1-(3-phenylpropyl)-1H-indole-6-carboxylic acid hydroxyamide]
- IC50 [1]: < 100 nM
- HDAC-1/HDAC-8 [2]: A (A >10 and <100)

Structure (SMILES): Cn1cc(Cc2ccc([N+](=O)[O-])cc2)c2cc(C(=O)NO)ccc21 [Compound 34, 1-methyl-3-(4-nitro-phenylmethyl)-1H-indole-5-carboxylic acid hydroxyamide]
- HDAC-3/HDAC-8 [3]: A (A >10 and <100)
- IC50 [1]: < 100 nM
- HDAC-10/HDAC-8 [4]: B (B >100)
- HDAC-1/HDAC-8 [2]: A (A >10 and <100)
- HDAC-2/HDAC-8 [5]: B (B >100)
- HDAC-6/HDAC-8 [6]: A (A >10 and <100)

Structure (SMILES): O=C(NO)c1ccc2ccn(Cc3cccc(F)c3)c2c1 [Compound 4, 1-(3-fluoro-phenylmethyl)-1H-indole-6-carboxylic acid hydroxyamide]
- IC50 [1]: < 100 nM
- HDAC-1/HDAC-8 [2]: A (A >10 and <100)

Structure (SMILES): CCn1cc(Cc2ccccc2)c2cc(C(=O)NO)ccc21 [Compound 35, 1-ethyl-3-(phenylmethyl)-1H-indole-5-carboxylic acid hydroxyamide]
- IC50 [1]: < 100 nM
- HDAC-1/HDAC-8 [2]: A (A >10 and <100)
